Measurements from patent US5840752A, “Reduction of hair growth” (priority 1996, dated 1998).

Legend:
[1] = test system: hair growth of hamster flank organs; test: Golden Syrian hamster assay (flank organ hair mass); assay type: in vivo; settings: topical, thirteen applications; for Hair Mass (mg) ± SEM, Treated: 10 μl once a day; for % Reduction (of hair growth): vs vehicle treated side
Description: Male intact Golden Syrian hamsters are considered acceptable models for human beard hair growth in that they display oval shaped flank organs, one on each side, each about 8 mm. in major diameter, which grow thick black and coarse hair similar to human beard hair. These organs produce hair in response to androgens in the hamster. To evaluate the effectiveness of a composition including an inhibitor of a cholesterol synthetic pathway enzyme, the flank organs of each of a group of hamsters are depilated by applying a thioglycolate based chemical depilatory (Surgex) and/or shaved. To one organ of each animal 10 μl. of vehicle alone once a day is applied, while to the other organ of each animal an equal amount of vehicle containing an inhibitor of a cholesterol synthetic pathway enzyme is applied. After thirteen applications (one application per day for five days a week), the flank organs are shaved and the amount of recovered hair (hair mass) from each is weighed. Percent-reduction of hair growth is calculated by subtracting the hair mass (mg) value of the test compound treated side from the hair mass value of the vehicle treated side; the delta value obtained is then divided by the hair mass value of the vehicle treated side, and the resultant number is multiplied by 100.
The above-described assay will be referred to herein as the "Golden Syrian hamster" assay.

HMG CoA reductase = test: HMGCoA reductase assay in extracts of hair follicles from hamster flank organ; assay type: biochemical; settings: tested at 14 μM, 1 hour incubation
[2] = dose 10%, Vehicle A (40% acetone, 40% dipropylene glycol, 20% dimethyl sulfoxide)
[3] = dose 10%, Vehicle C (85% dimethyl sulfoxide, 10% benzyl alcohol, 5% NMP)
[4] = dose 5%, Vehicle B (100% dimethyl sulfoxide)
[5] = dose 5%, Vehicle C (85% dimethyl sulfoxide, 10% benzyl alcohol, 5% NMP)

CC[C@H](C)C(=O)O[C@H]1C[C@@H](C)C=C2C=C[C@H](C)[C@H](CC[C@@H]3C[C@@H](O)CC(=O)O3)[C@H]21 [Lovastatin, 1S-[1S-[1α(R*),3α,7β,8β(2S*,4S*),8αβ]]-1,2,3,7,8,8a-hexahydro-3,7-dimethyl-8-[2-(tetrahydro-4-hydroxy-6-oxo-2H-pyran-2-yl)ethyl]-1-naphthalenyl 2-methylbutanoate]
Hair Mass (mg) ± SEM, Treated [1, 2]: 0.81 ± 0.13 mg | % Reduction (of hair growth) [1, 2]: 63±4%

CC(C)CCC[C@@H](C)[C@H]1CC[C@H]2[C@@H]3C(=O)C=C4C[C@@H](O)CC[C@]4(C)[C@H]3CC[C@]12C [7-Ketocholesterol, 5-cholesten-3β-Ol-7-one]
Hair Mass (mg) ± SEM, Treated [1, 3]: 1.01 ± 0.1 mg | % Reduction (of hair growth) [1, 3]: 54 ± 7%

CC[C@H](C)C(=O)O[C@H]1CCC=C2C=C[C@H](C)[C@H](CC[C@@H]3C[C@@H](O)CC(=O)O3)[C@H]21 [Mevastatin, mevastatin]
Hair Mass (mg) ± SEM, Treated [1, 4]: 1.09 ± 0.07 mg | % Reduction (of hair growth) [1, 4]: 19 ± 7%

C[C@H](CCCC(C)(C)O)[C@H]1CC[C@H]2[C@@H]3CC=C4C[C@@H](O)CC[C@]4(C)[C@H]3CC[C@]12C [25-Hydroxycholesterol, 25-hydroxycholesterol]
Hair Mass (mg) ± SEM, Treated [1, 5]: 1.04 ± 0.10 mg | % Reduction (of hair growth) [1, 5]: 17 ± 9%

CCC(C)(C)C(=O)O[C@H]1C[C@@H](C)C=C2C=C[C@H](C)[C@H](CC[C@@H]3C[C@@H](O)CC(=O)O3)[C@H]21 (relative stereo) [Simivistatin, 1S-[1α,3α,7β,8β(2S*,4S*),8aβ]]-1,2,3,7,8,8a-hexahydro-3,7-dimethyl-8-[2-tetrahydro-4-hydroxy-6-oxo-2H-pyran-2-yl)ethyl]-1-napthalenyl-2,2-dimethyl-butanoic acid]
Hair Mass (mg) ± SEM, Treated [1, 2]: 0.60 ± 0.11 mg | % Reduction (of hair growth) [1, 2]: 61 ± 7% | inhibition of HMG CoA reductase activity (HMG CoA reductase): 100%
